Experimental data as given in publication PMC6271218, “Pharmacokinetics, Tissue Distribution and Excretion of Verticinone from F. hupehensis in Rats” (Molecules, 2014).
Where two headings read alike, the source gives them in different places.

Legend:
[1] = Excretion study (urine, bile, feces) after oral dose; assay type: in vivo, SD rats; details: for dose excreted: SD, rat, faeces, oral, read-out: recovery from feces; for dose excreted / cumulative excreted fraction in bile (% of administered dose) / cumulative excreted fraction in feces (% of administered dose) / unchanged verticinone excreted from urine and feces / cumulative excreted fraction in urine (% of administered dose): i.g. 2 mg/kg; for dose excreted as unchanged parent compound: 2 mg/kg oral dose; for cumulative excreted fraction in bile (% of administered dose): bile 24 h; for cumulative excreted fraction in feces (% of administered dose): feces 36 h; for cumulative excreted fraction in urine (% of administered dose): unchanged verticinone
Procedure: Ten rats were housed separately in metabolic cages and received a single oral dose of 2 mg/kg verticinone. Urine was collected at 0, 4, 8, 12, and 24 h for female rats and at 0, 4, 8, 12, 24, 36 h for male rats. Feces were collected at 0, 12, 24, and 36 h for female rats and at 0, 8, 12, 24, 36 h for male rats. The volume of urine samples was measured before storage at −20 °C. Feces were weighted and homogenized in 5 volumes (v/w) of 50% methanol/50% water and stored at −20 °C until analysis. In addition, ten rats were anesthetized with ether and then the bile ducts were cannulated with polyethylene tube. The rats also received a single oral dose of 2 mg/kg verticinone. Bile was collected at 0, 2, 4, 6, 8, 12, and 24 h after dosing and stored at −20 °C until analysis. Verticinone was extracted from urine, feces and bile samples based on the method described for tissue samples.
(§1) The quantification of verticinone was performed by a LC-MS method based on the previously reported method with slight modifications. The liquid chromatography system consisted of a model 2010 chromatograph (Shimadzu, Kyoto, Japan) equipped with a Shim-Pack VP-ODS C18 column (150 mm × 2.0 mm, 5 μm). A Shimadzu 2010 mass spectrometer (Q-array-Octapole-Quadrupole mass analyzer) equipped with an electrospray ionization interface was used for MS detection. The mobile phase consisted of (A) distilled water and (B) methanol, and the flow rate was 0.2 mL/min. Chromatography separation was achieved using a gradient elution program, as follows: 0.03→6.0 min, B% 15→85; 6.0→7.0 min, B% 85→85; 7.0→8.0 min, B% 85→15; 8.0–12.0 min, B% 15→15. The column and autosampler tray temperature were kept constant at 35 °C and 20 °C, respectively. For the determination of verticinone, the positive mode was selected, along with the conditions as follows.
(§2) CDL voltage […], probe voltage 4.5 kV, CDL temperature 250 °C, block temperature 200 °C, gas flow 1.5 L/min. Hupehenine was used as the internal standard (IS). Both verticinone and IS were detected using selected ion monitoring (SIM) at m/z 430.25 for verticinone and m/z 416.30 for hupehenine (IS), with a dwell time of 200 ms. Blank plasma, tissue homogenate, urine, feces homogenate and bile were used to prepare the corresponding calibration curves to avoid different matrix effects.

[2] = Single-dose plasma pharmacokinetics after i.g. administration; assay type: in vivo, SD rats; details: for bioavailability / AUC(0-inf) / AUC(0-t) / Tmax / MRT last / Vd/F / half-life / Cmax: SD, rat, plasma; for bioavailability: oral, i.g. vs i.v., read-out: absolute (oral) bioavailability; for AUC(0-inf) / AUC(0-t) / Tmax / MRT last / Vd/F / half-life / Cmax: po; for MRT last: read-out: MRT0–t; for Vd/F: read-out: Vz/F; for half-life: read-out: t1/2z (converted); for Cmax: n = 5; for relationship between dosages and AUC0–t in plasma: oral 1, 2 and 4 mg/kg
Procedure: Pharmacokinetic studies of verticinone after intravenous (i.v.) and intragastrical (i.g.) administration to rats were designed to determine pharmacokinetic parameters and absolute bioavailability. For i.g administration, verticinone was suspended in 0.5% carboxymethyl cellulose sodium (CMC-Na) to final concentrations of 0.2, 0.4 and 0.8 mg/mL. Verticinone was dissolved in 20% ethanol/80% water to final concentration of 0.08 mg/mL for i.v. administration. For the i.v. group, five male and five female rats received a single dose of 0.4 mg/kg. Blood samples (0.25 mL) were obtained at 0, 4, 15, 30, 45, 60, 120, 240, 360, 480, 600 and 720 min after injection. For the single- i.g. group, fifteen male and fifteen female rats were divided into three groups, and each group received a single oral dose of 1, 2 and 4 mg/kg of verticinone, respectively. In addition, another five male and five female rats received multiple oral doses of 4 mg/kg/day, given as 2 mg/kg doses twice a day (one dose in the morning and the second dose 12 h later) for 7 days, then a single oral dose of 2 mg/kg on the eighth day. Blood samples (0.25 mL) were obtained at 0, 5, 15, 30, 45, 60, 90, 120, 240, 360, 480 and 720 min for male rats and at 0, 5, 10, 20, 30, 45, 60, 120, 240, 360, 480 and 720 min for female rats after oral administration (the eighth day for multiple-dose group). Blood samples were then centrifuged at 4000 rpm for 10 min, and the plasma was collected. All plasma samples were frozen and stored at −20 °C until analysis. Verticinone was isolated from plasma by liquid-liquid extraction according to our previously reported procedure.
as §1, §2
The pharmacokinetic parameters were calculated by the DAS 2.0 software (Chinese Pharmacological Association, Beijing, China) using a standard non-compartmental method. The Cmax and Tmax were determined from the observed data. The elimination rate constant (ke) was calculated by log-linear regression of verticinone concentrations during the terminal elimination phase and the half-life (t1/2) was calculated as 0.693/ke. The AUC0–t was calculated by the linear trapezoidal method. The AUC0–∞ was calculated as the sum of AUC0–t and the extrapolated part determined by Clast/ke. The total clearance (CL) was calculated as dose/AUC0–∞. The absolute bioavailability (F) was calculated by the following equation: F = [(AUCi.g./AUCi.v.) × (Dosei.v./Dosei.g.)] × 100%. The results were expressed as mean ± SD. Statistical analyses were performed using an unpaired Student’s t-test.

[3] = i.g. 1 mg/kg single dose, female rats
[4] = i.g. 1 mg/kg single dose, male rats
[5] = i.g. 2 mg/kg single dose, female rats
[6] = i.g. 2 mg/kg single dose, male rats
[7] = i.g. 4 mg/kg single dose, female rats
[8] = i.g. 4 mg/kg single dose, male rats

Question: With `C[C@H]1CC[C@@H]2N(C1)C[C@H]1[C@@H]3C[C@H]4[C@@H](CC(=O)[C@H]5C[C@@H](O)CC[C@@]54C)[C@@H]3CC[C@@H]1[C@]2(C)O` [verticinone, Verticinone] as the compound, how does the dose excreted ([1]; female rats) read?
Answer: < 1%

Question: What about the dose excreted ([1]; male rats) of the same compound?
Answer: < 1%

Question: What about the “dose excreted as unchanged parent compound” value ([1]; female rats) of the same compound?
Answer: less than 1%

Question: And the “cumulative excreted fraction in bile (% of administered dose)” value ([1]; female rats)?
Answer: 0.02% ± 0.01

Question: What about the “cumulative excreted fraction in feces (% of administered dose)” value ([1]; female rats) of the same compound?
Answer: 0.42% ± 0.29

Question: And the “unchanged verticinone excreted from urine and feces” value ([1]; female rats)?
Answer: 0.6%

Question: What about the “cumulative excreted fraction in urine (% of administered dose)” value ([1]; female rats, urine 24 h) of the same compound?
Answer: 0.23% ± 0.05

Question: What about the “dose excreted as unchanged parent compound” value ([1]; male rats) of the same compound?
Answer: less than 4%

Question: What about the “cumulative excreted fraction in bile (% of administered dose)” value ([1]; male rats) of the same compound?
Answer: 0.31% ± 0.21

Question: What about the “cumulative excreted fraction in feces (% of administered dose)” value ([1]; male rats) of the same compound?
Answer: 0.92% ± 0.53

Question: And the “unchanged verticinone excreted from urine and feces” value ([1]; male rats)?
Answer: about 3.4%

Question: And the “cumulative excreted fraction in urine (% of administered dose)” value ([1]; male rats, urine 36 h)?
Answer: 2.50% ± 0.98

Question: What about the bioavailability ([2]; female rats) of the same compound?
Answer: 2.74%

Question: What about the bioavailability ([2]; male rats) of the same compound?
Answer: 45.8%

Question: What about the AUC(0-inf) [2, 3] of the same compound?
Answer: 15.3 ± 3.06 ng·h/mL

Question: What about the AUC(0-t) [2, 3] of the same compound?
Answer: 14.5 ± 3.27 ng·h/mL

Question: And the Tmax [2, 3]?
Answer: 0.67 ± 0.31 h

Question: What about the MRT last [2, 3] of the same compound?
Answer: 3.59 ± 0.18 h

Question: And the Vd/F [2, 3]?
Answer: 280 ± 160 L/kg

Question: What about the half-life [2, 3] of the same compound?
Answer: 2.86 ± 1.29 h

Question: And the AUC(0-inf) [2, 4]?
Answer: 167 ± 52.5 ng·h/mL

Question: And the AUC(0-t) [2, 4]?
Answer: 159 ± 50.1 ng·h/mL

Question: What about the Tmax [2, 4] of the same compound?
Answer: 0.7 ± 0.11 h

Question: What about the MRT last [2, 4] of the same compound?
Answer: 3.21 ± 0.34 h

Question: What about the Vd/F [2, 4] of the same compound?
Answer: 25.5 ± 9.07 L/kg

Question: And the half-life [2, 4]?
Answer: 2.78 ± 0.85 h

Question: What about the AUC(0-inf) [2, 5] of the same compound?
Answer: 18.8 ± 5.01 ng·h/mL

Question: And the AUC(0-t) [2, 5]?
Answer: 17.3 ± 5.4 ng·h/mL

Question: And the Tmax [2, 5]?
Answer: 0.4 ± 0.36 h

Question: And the MRT last [2, 5]?
Answer: 3.42 ± 1.22 h

Question: And the Vd/F [2, 5]?
Answer: 649 ± 419 L/kg

Question: And the half-life [2, 5]?
Answer: 4.05 ± 2.48 h

Question: What about the AUC(0-inf) [2, 6] of the same compound?
Answer: 475 ± 119 ng·h/mL

Question: What about the AUC(0-t) [2, 6] of the same compound?
Answer: 446 ± 111 ng·h/mL

Question: What about the Tmax [2, 6] of the same compound?
Answer: 1.45 ± 1.42 h

Question: What about the MRT last [2, 6] of the same compound?
Answer: 3.62 ± 0.37 h

Question: And the Vd/F [2, 6]?
Answer: 19.4 ± 6.7 L/kg

Question: What about the half-life [2, 6] of the same compound?
Answer: 3.05 ± 0.78 h

Question: And the AUC(0-inf) [2, 7]?
Answer: 27.1 ± 5.78 ng·h/mL

Question: What about the AUC(0-t) [2, 7] of the same compound?
Answer: 26.6 ± 5.84 ng·h/mL

Question: What about the Tmax [2, 7] of the same compound?
Answer: 0.4 ± 0.35 h

Question: What about the MRT last [2, 7] of the same compound?
Answer: 2.04 ± 0.21 h

Question: And the Vd/F [2, 7]?
Answer: 387 ± 74.2 L/kg

Question: And the half-life [2, 7]?
Answer: 1.84 ± 0.58 h

Question: What about the AUC(0-inf) [2, 8] of the same compound?
Answer: 769 ± 257 ng·h/mL

Question: And the AUC(0-t) [2, 8]?
Answer: 737 ± 236 ng·h/mL

Question: And the Tmax [2, 8]?
Answer: 0.7 ± 0.11 h

Question: And the MRT last [2, 8]?
Answer: 3.19 ± 0.48 h

Question: And the Vd/F [2, 8]?
Answer: 18.6 ± 9.14 L/kg

Question: What about the half-life [2, 8] of the same compound?
Answer: 2.33 ± 0.86 h

Question: And the Cmax [2, 3]?
Answer: 3.67 ± 1.13 ng/mL

Question: What about the Cmax [2, 4] of the same compound?
Answer: 38.9 ± 9.34 ng/mL

Question: What about the Cmax [2, 5] of the same compound?
Answer: 7.45 ± 7.1 ng/mL

Question: What about the Cmax [2, 6] of the same compound?
Answer: 94.8 ± 17.1 ng/mL

Question: What about the Cmax [2, 7] of the same compound?
Answer: 12.6 ± 5.14 ng/mL

Question: And the Cmax [2, 8]?
Answer: 176 ± 45.2 ng/mL

Question: What about the “relationship between dosages and AUC0–t in plasma” value ([2]; female rats) of the same compound?
Answer: nonlinear dependence

Question: What about the “relationship between dosages and AUC0–t in plasma” value ([2]; male rats) of the same compound?
Answer: linear dependence
